Measurements as given in patent publication EP4596547A1, “HETEROCYCLIC COMPOUND AND HARMFUL ARTHROPOD-CONTROLLING COMPOSITION CONTAINING SAME” (priority 2022, dated 2024).

Experiments:
Assay type in all cases: in vivo
[1] = tested on: cotton aphids (Aphis gossypii); test: Test method 1: foliar spray on cucumber seedlings inoculated with cotton aphids (formulation per Formulation Example 1); conditions: 120 h, 500 ppm, sprayed 10 mL/seedling one day after inoculation, surviving insects examined after 5 days, 25°C, read-out: control value
[2] = tested on: common cutworm (Spodoptera litura); test: Test method 3: sprayed cabbage foliage cut out, second instar larvae of common cutworm released; conditions: foliar, 120 h, sprayed 20 mL/seedling, five second instar larvae, after 5 days, 25°C
Procedure: (§1) A test compound is formed into a formulation according to the method described in Formulation Example 1, and water containing 0.03% by volume of Shindain (registered trademark) is added thereto to prepare a diluted solution containing the test compound at a predetermined concentration.
(§2) A cabbage (Brassicae oleracea) seedling (2 to 3 true leaf stage) planted in a container is sprayed with the diluted solution at a rate of 20 mL/seedling. Thereafter, the foliage portion of the seedling is cut out and placed in a container on which filter paper is laid. Thereto are released five second instar larvae of common cutworm (Spodoptera litura). After 5 days, the number of surviving insects is counted, and the mortality is determined from the following equation. [formula]

[3] = tested on: diamondback moth (Plutella xylostella); test: Test method 4: sprayed cabbage foliage cut out, second instar larvae of diamondback moth released; conditions: foliar, 120 h, sprayed 20 mL/seedling, five second instar larvae, after 5 days, 25°C
Procedure: as §1
as §2, with “diamondback moth (Plutella xylostella).” for “common cutworm (Spodoptera litura).”

Musca domestica = test: Test method 8: container inner surface coated with test compound, Musca domestica; conditions: 24 h, 40 mg/m^2 (800 ppm acetone solution), five adult female, 1 days, 25°C
Procedure: An acetone solution prepared such that the amount of the test compound is 800 ppm is poured into a container having an internal volume of 20 mL, and the inner surface of the container is uniformly coated such that the amount of the test compound is 40 mg/m^2, and then dried.
Five adult female Musca domestica are placed in the container, and the lid is closed. After a lapse of a predetermined time, the state of Musca domestica is examined, and the mortality is determined. The mortality is calculated by the following equation. [formula]

[4] = tested on: diamondback moth (Plutella xylostella); test: Test method 10: sprayed cabbage seedling, third instar larvae of diamondback moth released; conditions: 144 h, sprayed 20 mL/seedling, 10 third instar larvae, after 6 days, 25°C
Procedure: (§3) A test compound is formed into a formulation according to the method described in Formulation Example 5, and water containing 0.03% by volume of Shindain (registered trademark) is added thereto to prepare a diluted solution containing the test compound at a predetermined concentration.
(§4) A cabbage (Brassicae oleracea) seedling (3 to 4 true leaf stage) planted in a container is sprayed with the diluted solution at a rate of 20 mL/seedling. Thereafter, 10 third instar larvae of diamondback moth (Plutella xylostella) are released. After 6 days, the number of surviving insects is counted, and the mortality is determined from the following equation. [formula]

[5] = tested on: cotton aphids (Aphis gossypii); test: Test method 11: foliar spray on cucumber seedlings inoculated with cotton aphids (formulation per Formulation Example 5); conditions: 120 h, sprayed 10 mL/seedling one day after inoculation, after 5 days, 25°C, read-out: control value
Culex pipiens pallens = test: Test method 12: last-instar larvae of Culex pipiens pallens released into diluted solution; conditions: 24 h, 30 last-instar larvae, one day later, 25°C
Procedure: The test compound is formulated according to the method described in Formulation Example 1, and water is added thereto to prepare a diluted solution containing the test compound at a predetermined concentration. 30 last-instar larvae of Culex pipiens pallens are released into the diluted solution, and the state of the larvae of Culex pipiens is examined one day later to determine the Mortality. The mortality is calculated by the following equation. [formula]

Aphis gossypii = test: Test method 2: soil irrigation of cucumber seedlings, later inoculated with Aphis gossypii; conditions: 144 h, irrigated 5 mL/seedling, inoculated after 7 days, surviving insects examined after 6 days, 25°C, read-out: control value
Procedure: The test compound is formulated according to the method described in Formulation Example 5, and water is added thereto to prepare a diluted solution containing the test compound at a predetermined concentration. A cucumber (Cucumis sativus) seedling (second true leaf stage) planted in a container is irrigated with the diluted solution at a rate of 5 mL/seedling. After 7 days, the leaf surface of this seedling is inoculated with about 30 Aphis gossypii (whole stage). After 6 days, the number of surviving insects is examined, and the control value is determined by the following formula. [formula] • Characters in the formula represent the following meanings. • Cb: number of test insects in a non-treated section • Cai: number of surviving insects in a non-treated section at the time of investigation • Tb: number of test insects in a treated section • Tai: number of surviving insects in a treated section at the time of investigation Herein, the non-treated section means a section that is subjected to the same operation as that of the treated section except that the test compound is not used.

Blattella germanica = test: Test method 6: container inner surface coated with test compound, Blattella germanica; conditions: 72 h
Procedure: An acetone solution prepared such that the amount of the test compound is 800 ppm is poured into a container having an internal volume of 50 mL, and the inner surface of the container is uniformly coated such that the amount of the test compound is 40 mg/m^2, and then dried.
Five male imagoes of Blattella germanica are placed in the container, and the lid is closed. After a lapse of a predetermined time, the state of Blattella germanica is examined, and the mortality is determined. The mortality is calculated by the following equation. [formula]

[6] = tested on: common cutworm (Spodoptera litura); test: Test method 9: sprayed cabbage seedling, third instar larvae of common cutworm released; conditions: 144 h
Procedure: as §3
as §4, with “common cutworm (Spodoptera litura)” for “diamondback moth (Plutella xylostella)”

[7] = tested on: Haemaphysalis longicornis; test: Test method 7: container inner surface coated with test compound, Haemaphysalis longicornis nymphs; conditions: 48 h, 100 mg/m^2 (2000 ppm acetone solution), five nymphs, 2 days, 25°C
Procedure: An acetone solution prepared such that the amount of the test compound is 2000 ppm is poured into a container having an internal volume of 20 mL, and the inner surface of the container is uniformly coated such that the amount of the test compound is 100 mg/m^2, and then dried.
Five nymphs of Haemaphysalis longicornis are placed in the container, and the lid is closed. After a lapse of a predetermined time, the state of Haemaphysalis longicornis is examined to determine the mortality. The mortality is calculated by the following equation. [formula]

[8] = tested on: Western corn rootworm (Diabrotica virgifera virgifera); test: whole plant or invertebrate; conditions: 120 h
Procedure: Each 1 mg of the test compound is dissolved in 50 µL of a mixed solution of polyoxyethylene sorbitan monococoate and acetone (5 : 95 (volume ratio)). Water containing 0.03% by volume of Shindain (registered trademark) is added thereto to prepare a diluted solution containing the test compound at a predetermined concentration.
Young seedlings of maize (Zea mays) are immersed in the diluted solution for 30 seconds. Thereafter, the two […] are placed in a petri dish (90 mm diameter), and thereto are released 10 second instar larvae of Western corn rootworm (Diabrotica virgifera virgifera). After 5 days, the number of dead insects is counted, and the mortality is determined from the following equation. [formula]

With `CCSc1c(N(C)C(=O)c2ccc(C(F)(F)F)s2)nc2ccc(I)cn12` [compound 6] as the compound, how does the mortality at 500 ppm [1] read?
Its mortality at 500 ppm is ≥ 90%.

And the mortality at 500 ppm [2]?
Its mortality at 500 ppm is ≥ 80%.

What about the mortality at 500 ppm [3] of the same compound?
The mortality at 500 ppm was ≥ 80%.

And the mortality at 40 mg/m2, 40 mg/m2 (Musca domestica)?
Its mortality at 40 mg/m2, 40 mg/m2 is ≥ 80%.

What about the mortality at 200 ppm [4] of the same compound?
Its mortality at 200 ppm is ≥ 80%.

And the mortality at 50 ppm [5]?
Its mortality at 50 ppm is ≥ 90%.

What about the mortality at 200 ppm [5] of the same compound?
The mortality at 200 ppm was ≥ 90%.

What about the mortality at 3.5 ppm (Culex pipiens pallens) of the same compound?
The mortality at 3.5 ppm was > 90%.

What does the source list for `CCSc1c(N(C)C(=O)c2cc(C(F)(F)F)n(C)n2)nc2ccc(I)cn12` [compound 16]?
mortality at 500 ppm [1]: ≥ 90%; mortality at 1000 ppm (Aphis gossypii): ≥ 90%; mortality at 500 ppm [2]: ≥ 80%; mortality at 500 ppm [3]: ≥ 80%; mortality at 40 mg/m2, 40 mg/m2 (Musca domestica): ≥ 80%; mortality at 200 ppm [5]: ≥ 90%; mortality at 3.5 ppm (Culex pipiens pallens): > 90%

For `CCSc1c(N(C)C(=O)c2cnn(C(F)(F)F)c2)nc2ccc(I)cn12` [compound 23], which mortality at 500 ppm [1] is on record?
Its mortality at 500 ppm is ≥ 90%.

And the mortality at 500 ppm [3]?
Its mortality at 500 ppm is ≥ 80%.

What about the mortality at 40 mg/m2, 40 mg/m2 (Blattella germanica) of the same compound?
Its mortality at 40 mg/m2, 40 mg/m2 is ≥ 80%.

What about the mortality at 200 ppm [6] of the same compound?
Its mortality at 200 ppm is ≥ 80%.

What about the mortality at 200 ppm [5] of the same compound?
Its mortality at 200 ppm is ≥ 90%.

What about the mortality at 3.5 ppm (Culex pipiens pallens) of the same compound?
The mortality at 3.5 ppm was > 90%.

`CCS(=O)(=O)c1c(N(C)C(=O)c2cnc(C(F)(F)F)s2)nc2ccc(I)cn12` [compound 40] was tested. Which mortality at 500 ppm [1] did it give?
The mortality at 500 ppm was ≥ 90%.

And the mortality at 1000 ppm (Aphis gossypii)?
Its mortality at 1000 ppm is ≥ 90%.

What about the mortality at 500 ppm [2] of the same compound?
Its mortality at 500 ppm is ≥ 80%.

And the mortality at 500 ppm [3]?
Its mortality at 500 ppm is ≥ 80%.

What about the mortality at 50 ppm [4] of the same compound?
Its mortality at 50 ppm is ≥ 80%.

And the mortality at 200 ppm [4]?
The mortality at 200 ppm was ≥ 80%.

What about the mortality at 50 ppm [5] of the same compound?
Its mortality at 50 ppm is ≥ 90%.

What about the mortality at 200 ppm [5] of the same compound?
Its mortality at 200 ppm is ≥ 90%.

What about the mortality at 3.5 ppm (Culex pipiens pallens) of the same compound?
The mortality at 3.5 ppm was > 90%.

With `CC[S+]([O-])c1c(N(C)C(=O)c2cnc(C(F)(F)F)s2)nc2cc(I)ccn12` (stereo not drawn) [compound 45] as the compound, how does the mortality at 500 ppm [1] read?
The mortality at 500 ppm was ≥ 90%.

What about the mortality at 100 mg/m2, 100 mg/m2 [7] of the same compound?
Its mortality at 100 mg/m2, 100 mg/m2 is ≥ 80%.

What about the mortality at 50 ppm [5] of the same compound?
The mortality at 50 ppm was ≥ 90%.

What about the mortality at 200 ppm [5] of the same compound?
The mortality at 200 ppm was ≥ 90%.

And the mortality at 3.5 ppm (Culex pipiens pallens)?
The mortality at 3.5 ppm was > 90%.

What does the source list for `CCS(=O)(=O)c1c(N(C)C(=O)c2cc(C(F)(F)F)n(C)n2)nc2ccc(I)cn12` [compound 52]?
mortality at 500 ppm [1]: ≥ 90%; mortality at 1000 ppm (Aphis gossypii): ≥ 90%; mortality at 500 ppm [3]: ≥ 80%; mortality at 200 ppm [8]: ≥ 80%; mortality at 40 mg/m2, 40 mg/m2 (Musca domestica): ≥ 80%; mortality at 50 ppm [4]: ≥ 80%; mortality at 200 ppm [4]: ≥ 80%; mortality at 50 ppm [5]: ≥ 90%; mortality at 200 ppm [5]: ≥ 90%; mortality at 3.5 ppm (Culex pipiens pallens): > 90%
